Reference: patent US10314814B2, “Composition comprising 7-hydroxymatairesinol” (LINNEA S.A., priority 2014, dated 2019)

Columns and labels:
Assay type in all cases: in vivo, mice (C57BL/6J)
[1] = test system: ATGL, PLA2g7 and LPL mRNA; assay: Test 8 - regulation of genes of the lipid metabolism (epidydimal adipose tissue); settings: summary statement; data in FIGS. 7a-7c
Method: (§1) A group of 140 mice (C57BL/6J) was divided in four sub-groups, group 1 having twenty mice and groups 2 to 4 having forty mice each. Group 1 was fed for 60 days with a low fat (LF) diet (providing 10% calories from fat). Group 2 was fed for 60 days with a high fat (HF) diet (providing 50% calories from fat). Groups 3 and 4 were fed for 60 days with a high fat diet and with 3 mg/kg/day of HMRlignan™ purified HMR (HF+HMR) or 10 mg/kg/day of a total extract of Picea abies (HF+TEP), respectively.
(§2) Mice were kept in animal cabinets maintained at a temperature of 23° C., with natural light/dark cycles. Before treatments, mice were put 5 days on an low fat diet. Mice were fed by gavage daily for 60 days (groups 3 and 4), whilst control groups (1 and 2) received by gavage the carrier only (corn oil). The animals were sacrificed by cervical dislocation and the tissues dissected and immediately frozen on dry ice or fixed for histological evaluation.
The expression of ATGL, PLA2g7 and LPL mRNA was measured in the epidydimal adipose tissue of the four groups of mice according to standard procedures as follows.
(§3) Total RNA was extracted from 10 to 30 mg of tissue using the RNeasy Lipid Tissue Kit (Qiagen, Maryland, USA) and following the manufacture's instruction. […] Quantitative PCR was performed using Assay on Demand kits based on TaqMan chemistry (Applied Biosystems). […]

GSTs mRNA; 8OHdG and dGU = assay: Test 10 - oxidative stress (GSTs mRNA, 8OHdG/dGU); settings: summary statement; data in FIGS. 9, 10
Method: as §1
Mice were kept in animal cabinets maintained at a temperature of 23° C., with natural light/dark cycles. Before treatments, mice were put 5 days on an low fat diet. […]
The expression of GSTs mRNA was measured in the four groups of mice according to standard procedures as follows.
as §3
The expression of 8OHdG and dGU […] was measured in the four groups of mice according to standard procedures as follows.
Genomic DNA was isolated with commercial kit PUREGENE (Gentra Systems MN, USA), following the manufacturer's instructions, and then quantified using Nanodrop spectrophotometer (Thermo Scientific, DE, USA). […]

IL-6 and TNF-alfa mRNA = assay: Test 7 - inflammatory cytokine mRNA expression; settings: summary statement; data in FIGS. 6a-6c
Method: as §1
(§4) Mice were kept in animal cabinets maintained at a temperature of 23° C., with natural light/dark cycles. Before treatments, mice were put 5 days on an low fat diet. Mice were fed by gavage daily for 60 days (groups 3 and 4), whilst control groups (1 and 2) received by gavage the carrier only (corn oil). […]
The expression of inflammatory cytokine mRNA was measured in the epidydimal adipose tissue (IL-6 and TNF-alfa) and liver (IL-6) in the four groups of mice according to standard procedures as follows.
as §3

[2] = test system: hepcidin, ferritin and ferroportin; assay: Test 11 - iron metabolism; settings: summary statement; data in FIG. 11
Method: as §1, §2
The levels of hepcidin, ferritin and ferroportin were measured in the four groups of mice according to standard procedures as described, for example, in An-Sheng Zhang et al. “Suppression of hepatic hepcidin expression in response to acute iron deprivation is associated with an increase of matriptase-2 protein”, Blood. Feb. 3, 2011; 117(5):1687-1699).

PPARg and TFEB mRNA = assay: Test 9 - regulation of genes of the lipid metabolism (liver); settings: summary statement; data in FIGS. 8a, 8b
Method: as §1, §2
The expression of PPARg and TFEB mRNA was measured in the liver of the four groups of mice according to standard procedures as follows.
as §3

liver tissue = assay: Test 3 - liver steatosis (histology); settings: high fat diet, 60 days; HMR 3 mg/kg/day, TEP 10 mg/kg/day; compared with HF group 2 (micro- and macro vesicular steatosis)
Method: as §1, §2
Fresh liver tissue was fixed in formaldehyde, embedded in paraffin and sliced into 3-μm sections. Sections were stained with hematoxylin, counterstained with eosin, then coverslipped with DPX (BDH, Poole, UK). Images acquisition was obtained by a digital camera (Nikon Digital Camera DMX 1200). A sample image of the four groups was illustrated in FIG. 3.

[3] = Test 1 - fat mass and lean mass quantification (EchoMRI), body weight; settings: summary statement; data in FIGS. 1 and 2
Method: as §1, §4
EchoMRI provides the most precise measurements of whole body composition parameters (total body fat and lean mass), in alive mice without the need of anesthesia or sedation and in less than 1 minute. Alterations in mouse whole body composition were assessed as a result of exposure to modified diets. […]
The EchoMRI-100™ QNMR system was housed in a dedicated area to minimize the entry of disease or contaminants. […] The output information was expressed as lean tissue mass and fat mass in grams. […]

[4] = Test 6 - lipid profiles in blood
Method: as §1, §2
The concentration in blood of cholesterol (Total), cholesterol HDL (HDL), cholesterol LDL (LDL) and triglycerides (TG) were determined according to standard methods, by using an ILab ARIES analyzer (Instrumentation Laboratory Company, Lexington, Mass., USA) and dedicated reagents kits IL Test (Instrumentation Laboratory Company, Lexington, Mass., USA)

[5] = test system: epidydimal adipose tissue; assay: Test 2 - histological examination, average adipocyte area
Method: as §1, §2
Fresh epidydimal adipose tissue was fixed in formaldehyde, embedded in paraffin and sliced into 3-μm sections. Sections were stained with hematoxylin, counterstained with eosin, then coverslipped with DPX (BDH, Poole, UK). […]
Average adipocyte area was calculated at ×20 magnification with a dedicated software (Image Pro Plus; Imaging and Computer, Milan). In all samples, at least four different fields of three different tissue sections have been evaluated.

[6] = Test 5 - homeostasis model assessment of insulin resistance (HOMA-IR); settings: HOMA Calculator, glucose and insulin after 6 hours of food withdrawal, high fat diet, 60 days
Method: as §1, §2
The homeostatic model assessment of insulin resistance (HOMA-IR) was calculated using glucose and insulin concentrations obtained after 6 hours of food withdrawal, using the HOMA Calculator (Diabetes Trials Unit), the Oxford Centre for Diabetes, Endocrinology and Metabolism: homa.calculator@dtu.ox.ac.uk. Plasma insulin levels were measured with an insulin ELISA kit (Millipore, Mouse Insulin 96 well plate assay; CAT. Nº EZRMI-13K).

[7] = Test 4 - glucose tolerance test; settings: summary statement; data in FIG. 4
Method: as §1, §2
For glucose tolerance tests animals were fasted overnight for 12 hours and blood sample were obtained from the tail vein. […] The glucose concentration was evaluated with standard method (Benjamin B. Whiddon and Richard D. Palmiter. Ablation of Neurons Expressing Melanin-Concentrating Hormone (MCH) in Adult Mice Improves Glucose Tolerance Independent of MCH Signaling. J Neurosci. 2013 Jan. 30; 33(5): 2009-2016).

COc1cc(CC2C(=O)OCC2C(O)c2ccc(O)c(OC)c2)ccc1O (stereo not drawn) [HMR, 7-hydroxymatairesinol]
regulation of genes of the lipid metabolism in the epidydimal adipose tissue (ATGL mRNA, PLA2g7 gene, LPL gene) [1]: able to contribute to the regulation | cellular oxidative stress (GSTs mRNA; 8OHdG and dGU): able to reduce | concentration of pro-inflammatory cytokines in the epidydimal adipose tissue and liver (IL-6 and TNF-alfa mRNA): reduce | iron metabolism [2]: regulate | regulation of genes of the lipid metabolism in the liver (PPARg gene, TFEB gene) (PPARg and TFEB mRNA): able to contribute to the regulation | Liver histology (steatosis) (liver tissue): some vacuoles, much less than group 2 | obesity [3]: able to reduce | cholesterol LDL (LDL) concentration in blood ([4]; high fat diet, 60 days, HF control 56, LF 18): 51 | cholesterol HDL (HDL) concentration in blood ([4]; high fat diet, 60 days, HF control 133, LF 79): 129 | triglycerides (TG) concentration in blood ([4]; high fat diet, 60 days, HF control 153, LF 88): 140 | cholesterol (Total) concentration in blood ([4]; high fat diet, 60 days, HMR 3 mg/kg/day, TEP 10 mg/kg/day, HF control 220, LF 114): 209 | dyslipidemia ([4]; summary statement): able to reduce | Average area (adipocyte) ([5]; epidydimal adipose tissue, high fat diet, 60 days, daily gavage, HMR 3 mg/kg/day, TEP 10 mg/kg/day, HF control 20832, LF 9275, data only indicative, group 3 vs group 2 statistically different): 18478 μm^2 | number and area of adipocytes ([5]; summary statement): able to reduce | IR: Insulin resistance ([6]; HF control 6.97, LF 0.69): 2.04 | % S: Insulin sensitivity ([6]; HF control 15.0, LF 121.0): 31.9 | % B: Steady state beta cell function ([6]; HF control 101.0, LF 64.4): 55.0 | glycaemia [7]: able to reduce
